Among the data in PubChem BioAssay (NCI) are TGI and GI50 values, retold here.

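Following 48 hours of exposure in 96-well plates, responses at five concentrations were used to interpolate endpoints linearly. Here, GI50 denotes the concentration required for 50% inhibition of growth. The concentration for full growth arrest is given as TGI.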 A value given as a limit tells only on which side of the number the result lay.

What all share (test): NCI-60 cell line screen, 48 h
The subject of assay [1] is A498 renal.
Assay [2] concerns HT29 colon.
Assay [3] concerns K-562 leukemia.
Assay [4] deals with KM12 colon.
The test system of assay [5] is MALME-3M melanoma.
Assay [6] has as its system SF-295 CNS.
In assay [7] the test system is SF-539 CNS.
The subject of assay [8] is SK-MEL-2 melanoma.
The subject of assay [9] is SNB-75 CNS.
For assay [10], the system named is OVCAR-8 ovarian.

Take `CCC(C)NC1=NCC(C)S1` (stereo not drawn): the TGI in assay [1], in assay [2], in assay [3], in [4], in assay [5] and in assay [6] was more than 100 µM each time. The TGI in assay [7], in assay [8] and in assay [9] was more than 100 µM in each case.
With `CCOP(=O)(OCC)C(c1ccc(F)cc1)N(C(=O)NC(F)(F)F)c1cccc(C(F)(F)F)c1` (stereo not drawn), the TGI in [1], in assay [2], in assay [3], in assay [4], in assay [5] and in assay [10] was more than 100 µM in each case. The TGI in assay [6], in assay [7], in assay [8] and in [9] was more than 100 µM throughout.
Turning to `C=C(C)[C@H]1Cc2c(ccc3c2O[C@@H]2COc4cc(OC)c(OC)cc4[C@@H]2C3=O)O1`, the TGI is 63.3 µM in [1]; 4.09 µM in [2]; more than 72.1 µM in assay [3]; 14.3 µM in [4]; 48 µM in assay [5]; 10.1 µM in assay [10]. The TGI is 38 µM in assay [6], 3.36 µM in assay [7], 25.3 µM in assay [8] and 60.5 µM in [9].
For `COc1ccccc1CNCCCN1C(=O)c2ccc3c4c(ccc(c24)C1=O)C(=O)N(CCCNCCNCCCN)C3=O`, the GI50 in [1] was 5.01 µM; in [2], 2.07 µM; in assay [3], 3.24 µM; in assay [4], 3.25 µM; in assay [5], 1.61 µM; in [10], 2.08 µM. The GI50 was 2.77 µM in assay [6], 2.88 µM in [7], 2.67 µM in [8] and 3.07 µM in [9]. The TGI stood at 20.1 µM in assay [1]; 11 µM in assay [2]; 16.7 µM in [3]; 11.4 µM in [4]; 3.2 µM in assay [5]; 11.7 µM in assay [10]. Further, the TGI in [6] worked out at 12.6 µM; in assay [7] it was 9.58 µM; in [8], 6.49 µM; in [9], 14.8 µM.
For the compound `CCOC(=O)CNC(=O)N(CC)C12CC3CC(CC(C3)C1)C2`, the TGI in assay [1] was 274 µM; in assay [2], 204 µM; in assay [3] it was 409 µM; in assay [4] it was 453 µM; in assay [5], 278 µM; in [10], 417 µM. The TGI in assay [6] was 304 µM; in [7], 251 µM; in assay [8], 205 µM; in assay [9], 361 µM.
Regarding `CC1CC2=C(S(=O)(=O)c3ccccc3)CC(S(=O)(=O)c3ccccc3)(S(=O)(=O)c3ccccc3)CC21` (stereo not drawn), the TGI in assay [1], in assay [2], in [3], in [4], in assay [10] and in assay [6] was more than 100 µM throughout. Also, the TGI in [7], in assay [8] and in assay [9] was more than 100 µM each time.
As to `CCOC(=O)Cn1c(=O)ccn(COCCO)c1=O`, the TGI in assay [1], in [2], in assay [3], in assay [4], in assay [5] and in [10] was more than 100 µM throughout. The TGI in [7], in [8] and in [9] was more than 100 µM throughout.
With `COCc1nc2c(OC)c(-c3nc4nc(N5CCN(C)CC5)ccc4[nH]3)cc(OC)c2n1C`, the TGI in assay [2] was 62 µM; in assay [3], more than 100 µM; in assay [4], 61.6 µM; in [5] it was 35.6 µM; in assay [10], more than 100 µM; in assay [6] it was 92.9 µM. Moreover, the TGI in assay [7] is 27.1 µM; in assay [8], 41.9 µM; in assay [9] it was 64.9 µM.
As for `NNC(=O)c1c(SCc2ccccc2)nc2c3ccccc3ccn12`, the TGI was 46.6 µM in assay [1]; 35.3 µM in assay [2]; 57.9 µM in [3]; more than 100 µM in assay [4]; more than 100 µM in [10]; more than 100 µM in [6]. Also, the TGI in assay [7] and in assay [8] was more than 100 µM in each case.
Regarding `C/C(=N/NC(N)=S)c1ccc[nH]1`, the TGI in assay [1], in assay [2], in [3], in assay [4], in assay [5] and in assay [10] was more than 100 µM throughout. In addition, the TGI in assay [6], in assay [7], in [8] and in assay [9] was more than 100 µM in each case.
Turning to `COc1ccc(S(=O)(=O)c2ccccc2[N+](=O)[O-])cc1`, the TGI in [1], in [2], in [3], in [4], in [5] and in assay [10] was more than 100 µM throughout. In addition, the TGI in assay [6], in [7], in assay [8] and in [9] was more than 100 µM throughout.
In the case of `COc1cc2oc(-c3ccc(O)cc3)c(OC)c(=O)c2c(O)c1OC`, the GI50 in assay [1] was 11 µM; in assay [2], 31.1 µM; in assay [3] it was 42.8 µM; in assay [4] it was 78.9 µM; in assay [5], 28.4 µM; in assay [10] it was 86.1 µM. Moreover, the GI50 in assay [6] is 36.1 µM; in [7], 44.1 µM; in [8] it was 39.2 µM; in [9], 45.2 µM. The TGI in [1], in [2], in assay [3], in assay [4], in assay [5] and in assay [10] was more than 100 µM each time. The TGI in [6], in [7], in [8] and in [9] was more than 100 µM in each case.
`CC(=O)Nc1ccc(/C=C/c2ccc(NC(=O)Nc3ccc(/C=C/c4ccc(NC(C)=O)cc4S(=O)(=O)O)c(S(=O)(=O)O)c3)cc2S(=O)(=O)O)c(S(=O)(=O)O)c1`: the TGI in assay [1], in [2], in [3], in [4], in [5] and in assay [10] was more than 100 µM in each case. For the same compound, the TGI in [6], in assay [7], in [8] and in [9] was more than 100 µM throughout.
With `COCCCNc1nc(N)c(C#N)c(C#N)c1C#N`, the TGI in assay [1], in assay [2], in [3], in [4], in [5] and in [10] was more than 10 µM in each case. Further, the TGI in [6], in assay [7], in assay [8] and in assay [9] was more than 10 µM in each case.
`CCOC(=O)c1ccc(N[C@@H]2c3cc4c(cc3C(c3cc(OC)c(O)c(OC)c3)[C@H]3C(=O)OCC32)OCO4)cc1O` (stereo partly drawn): the TGI in assay [1] is 2.81 µM; in assay [2], 1.32 µM; in [4] it was 1.47 µM; in assay [5] it was 14.2 µM; in [10], more than 21.9 µM; in assay [6], 2.96 µM. Besides, the TGI in assay [7] was 2.69 µM; in assay [8], 1.83 µM; in assay [9], more than 23.2 µM.
